How the values were obtained:
Assay type in all cases: functional
[1] = tested on: HOP-62; experiment: Growth inhibition of human HOP62 cells
[2] = tested on: UO-31; experiment: Growth inhibition of human UO31 cells
[3] = tested on: ACHN; experiment: Growth inhibition of human ACHN cells
[4] = tested on: BT-549; experiment: Growth inhibition of human BT549 cells
[5] = tested on: SN12C; experiment: Growth inhibition of human SN12C cells
[6] = tested on: KM12; experiment: Growth inhibition of human KM12 cells
[7] = tested on: HCT-116; experiment: Growth inhibition of human HCT116 cells
[8] = tested on: NCI/ADR-RES; experiment: Growth inhibition of human NCI/ADR-RES cells
[9] = tested on: SW-620; experiment: Growth inhibition of human SW620 cells
[10] = tested on: SF-268; experiment: Growth inhibition of human SF268 cells
[11] = tested on: OVCAR-5; experiment: Growth inhibition of human OVCAR5 cells
[12] = tested on: HL-60(TB); experiment: Growth inhibition of human HL-60(TB) cells
[13] = tested on: SK-MEL-28; experiment: Growth inhibition of human SK-MEL-28 cells
[14] = tested on: SK-MEL-2; experiment: Growth inhibition of human SK-MEL-2 cells
[15] = tested on: MDA-MB-231; experiment: Growth inhibition of human MDA-MB-231 cells
[16] = tested on: NCI-H226; experiment: Growth inhibition of human NCI-H226 cells
[17] = tested on: HCC 2998; experiment: Growth inhibition of human HCC2998 cells
[18] = tested on: OVCAR-3; experiment: Growth inhibition of human OVCAR-3 cells
[19] = Growth inhibition of human NCI60 cells
[20] = tested on: MDA-MB-468; experiment: Growth inhibition of human MDA-MB-468 cells
[21] = tested on: EKVX; experiment: Growth inhibition of human EKVX cells
[22] = tested on: OVCAR-4; experiment: Growth inhibition of human OVCAR4 cells
[23] = tested on: A549; experiment: Growth inhibition of human A549 cells
[24] = tested on: U-251; experiment: Growth inhibition of human U251 cells
[25] = tested on: SF-295; experiment: Growth inhibition of human SF295 cells
[26] = tested on: NCI-H23; experiment: Growth inhibition of human NCI-H23 cells
[27] = tested on: M14; experiment: Growth inhibition of human M14 cells
[28] = tested on: NCI-H322M; experiment: Growth inhibition of human NCI-H322M cells
[29] = tested on: UACC-62; experiment: Growth inhibition of human UACC62 cells
[30] = tested on: HT-29; experiment: Growth inhibition of human HT-29 cells
[31] = tested on: COLO 205; experiment: Growth inhibition of human COLO205 cells
[32] = Growth inhibition of human Hs 578T cells
[33] = tested on: 786-0; experiment: Growth inhibition of human 786-0 cells
[34] = tested on: SNB-19; experiment: Growth inhibition of human SNB19 cells
[35] = tested on: PC-3; experiment: Growth inhibition of human PC3 cells
[36] = tested on: MCF7; experiment: Growth inhibition of human MCF7 cells
[37] = tested on: RXF 393; experiment: Growth inhibition of human […] cells
[38] = tested on: CAKI-1; experiment: Growth inhibition of human Caki1 cells
[39] = tested on: TK-10; experiment: Growth inhibition of human TK10 cells
[40] = tested on: SK-OV-3; experiment: Growth inhibition of human SKOV3 cells
[41] = tested on: RPMI-8226; experiment: Growth inhibition of human RPMI8226 cells
[42] = tested on: Malme-3M; experiment: Growth inhibition of human MALME-3M cells
[43] = tested on: NCI-H460; experiment: Growth inhibition of human NCI-H460 cells
[44] = tested on: UACC-257; experiment: Growth inhibition of human UACC257 cells
[45] = read-out: pLC50 (the source's name) (converted)

CC(C)=CCC/C(C)=C/CC/C(C)=C/Cc1c(O)cc(/C=C/c2ccc(O)cc2)cc1O [SCHWEINFURTHIN J]
GI50 [1]: 2.04 µM | LC50 [1]: 7.41 µM | TGI ([1]; read-out: pTGI (converted)): 3.89 µM | GI50 [2]: 1.32 µM | LC50 (concentration killing 50% of cells) [2]: 34.7 µM | TGI ([2]; read-out: pTGI (converted)): 10.2 µM | GI50 [3]: 3.8 µM | CC50 [3, 45]: 38.9 µM | TGI ([3]; read-out: pTGI (converted)): 13.5 µM | GI50 [4]: 2.57 µM | LC50 [4]: 30.9 µM | TGI ([4]; read-out: pTGI (converted)): 8.91 µM | GI50 [5]: 1.95 µM | CC50 [5, 45]: 9.77 µM | TGI ([5]; read-out: pTGI (converted)): 4.37 µM | GI50 [6]: 2.75 µM | LC50 [6]: 31.6 µM | TGI ([6]; read-out: pTGI (converted)): 8.91 µM | GI50 [7]: 1.86 µM | CC50 [7, 45]: 7.94 µM | TGI ([7]; read-out: pTGI (converted)): 3.89 µM | GI50 [8]: 3.16 µM | CC50 [8, 45]: 38.9 µM | TGI ([8]; read-out: pTGI (converted)): 9.77 µM | GI50 [9]: 3.16 µM | LC50 [9]: 66.1 µM | TGI ([9]; read-out: pTGI (converted)): 12 µM | GI50 [10]: 2.63 µM | LC50 [10]: 38 µM | TGI ([10]; read-out: pTGI (converted)): 11.5 µM | GI50 [11]: 4.47 µM | LC50 [11]: 44.7 µM | TGI ([11]; read-out: pTGI (converted)): 15.8 µM | GI50 [12]: 2.57 µM | CC50 [12, 45]: > 100 µM | TGI ([12]; read-out: pTGI (converted)): 18.6 µM | GI50 [13]: 2.45 µM | CC50 [13, 45]: 23.4 µM | TGI ([13]; read-out: pTGI (converted)): 6.46 µM | GI50 [14]: 2.75 µM | LC50 [14]: 31.6 µM | TGI ([14]; read-out: pTGI (converted)): 8.13 µM | GI50 [15]: 3.47 µM | LC50 [15]: 44.7 µM | TGI ([15]; read-out: pTGI (converted)): 11.7 µM | GI50 [16]: 3.63 µM | LC50 [16]: 55 µM | TGI ([16]; read-out: pTGI (converted)): 14.8 µM | GI50 [17]: 2.69 µM | LC50 [17]: 21.4 µM | TGI ([17]; read-out: pTGI (converted)): 6.31 µM | GI50 [18]: 2 µM | LC50 (concentration killing 50% of cells) [18]: 14.1 µM | TGI ([18]; read-out: pTGI (converted)): 4.79 µM | GI50 [19]: 2.8 µM | GI50 [20]: 2.69 µM | CC50 [20, 45]: 36.3 µM | TGI ([20]; read-out: pTGI (converted)): 8.91 µM | GI50 [21]: 4.27 µM | LC50 [21]: 46.8 µM | TGI ([21]; read-out: pTGI (converted)): 16.6 µM | GI50 [22]: 3.89 µM | CC50 [22, 45]: 39.8 µM | TGI ([22]; read-out: pTGI (converted)): 14.8 µM | GI50 [23]: 3.31 µM | LC50 [23]: 42.7 µM | TGI ([23]; read-out: pTGI (converted)): 12.9 µM | GI50 [24]: 2.75 µM | LC50 [24]: 30.9 µM | TGI ([24]; read-out: pTGI (converted)): 8.32 µM | GI50 [25]: 2.29 µM | LC50 [25]: 45.7 µM | TGI ([25]; read-out: pTGI (converted)): 11.5 µM | GI50 [26]: 3.02 µM | LC50 [26]: 36.3 µM | TGI ([26]; read-out: pTGI (converted)): 8.51 µM | GI50 [27]: 2 µM | CC50 [27, 45]: 8.51 µM | TGI ([27]; read-out: pTGI (converted)): 4.17 µM | GI50 [28]: 6.17 µM | LC50 [28]: 47.9 µM | TGI ([28]; read-out: pTGI (converted)): 20 µM | GI50 [29]: 2.24 µM | CC50 [29, 45]: 15.8 µM | TGI ([29]; read-out: pTGI (converted)): 5.25 µM | GI50 [30]: 3.98 µM | LC50 [30]: 49 µM | TGI ([30]; read-out: pTGI (converted)): 15.8 µM | GI50 [31]: 6.46 µM | LC50 [31]: 44.7 µM | TGI ([31]; read-out: pTGI (converted)): 18.6 µM | GI50 [32]: 2.88 µM | LC50 [32]: 89.1 µM | TGI ([32]; read-out: pTGI (converted)): 12.3 µM | GI50 [33]: 1.95 µM | CC50 [33, 45]: 9.77 µM | TGI ([33]; read-out: pTGI (converted)): 4.37 µM | GI50 [34]: 6.76 µM | LC50 [34]: 46.8 µM | TGI ([34]; read-out: pTGI (converted)): 19.5 µM | GI50 [35]: 3.02 µM | LC50 [35]: 42.7 µM | TGI ([35]; read-out: pTGI (converted)): 13.5 µM | GI50 [36]: 2.57 µM | LC50 [36]: 43.7 µM | TGI ([36]; read-out: pTGI (converted)): 11.2 µM | GI50 [37]: 1.86 µM | CC50 [37, 45]: 6.61 µM | TGI ([37]; read-out: pTGI (converted)): 3.55 µM | GI50 [38]: 1.82 µM | CC50 [38, 45]: 25.1 µM | TGI ([38]; read-out: pTGI (converted)): 5.89 µM | GI50 [39]: 2.63 µM | LC50 [39]: 31.6 µM | TGI ([39]; read-out: pTGI (converted)): 9.33 µM | GI50 [40]: 7.24 µM | CC50 [40, 45]: 44.7 µM | TGI ([40]; read-out: pTGI (converted)): 19.5 µM | GI50 [41]: 3.16 µM | LC50 [41]: > 100 µM | TGI ([41]; read-out: pTGI (converted)): 14.8 µM | GI50 [42]: 2.95 µM | LC50 [42]: 39.8 µM | TGI ([42]; read-out: pTGI (converted)): 8.91 µM | GI50 [43]: 3.24 µM | LC50 [43]: 70.8 µM | TGI ([43]; read-out: pTGI (converted)): 12 µM | GI50 [44]: 4.68 µM | LC50 [44]: 41.7 µM | TGI ([44]; read-out: pTGI (converted)): 16.2 µM
